The structures appear in SMILES notation. Where two headings read alike, the source gives them in different places.

These results are taken from patent publication US10953029B2, “4′-Substituted nucleoside reverse transcriptase inhibitors and preparations thereof” (Merck Sharp & Dohme Corp., priority 2015, dated 2021).

For data set [1], the system named is wild-type HIV-1-GFP virus. The data set is described as follows: Antiviral Persistence in Human Peripheral Blood Mononuclear Cells (PBMC). It counts as cell-based. As to conditions: Human immunodeficiency virus 1, PBMC. The procedure:
PBMCs were obtained from Biological Specialty Corporation, activated with 5 μg/ml PHA-P (Sigma L1668) for 72 hrs, and then washed with fresh medium. Following activation, PBMCs were cultured in media containing 10 IU/ml IL-2 (Roche 11011456001). Cells were treated with a titration of compound for 6 or 24 hrs and washed with fresh medium. To evaluate persistence of antiviral activity following wash-out, PBMCs were maintained for either 24 h or 72 h and then infected by adding wild-type HIV-1-GFP virus (17 μL/well) to the plates and incubating at 37° C./5% CO2/90% relative humidity. Infected cells were quantified at 24 h post-infection by counting the number of green cells in each well using an Acumen eX3 scanner. EC50 values in Table 3 were calculated by non-linear 4-parameter curve fitting.
The antiviral persistence assay is meant to assess for the persistence of antiviral activity upon removal of the nucleoside. […] The publication AIDS Research and Therapy, 2009, 6:5, highlights the value of antiviral persistence.

The subject of the next data set is HIV-1 (H9IIIB virus). The data set is described as follows: Viking Assay: antiviral potency in a multiple round HIV-1 infection assay (MT4-GFP cells). It counts as cell-based. As to conditions: Human immunodeficiency virus 1, 10% normal human serum, read-out: Viking, EC50 (10% NHS). The procedure:
Assessing antiviral potency in a multiple round HIV-1 infection assay. HIV-1 replication was monitored using MT4-gag-GFP clone D3 (hereafter designate MT4-GFP), which are MT-4 cells modified to harbor a GFP reporter gene, the expression of which is dependent on the HIV-1 expressed proteins tat and rev. Productive infection of an MT4-GFP cell with HIV-1 results in GFP expression approximately 24 h post-infection.
MT4-GFP cells were maintained at 37° C./5% CO2/90% relative humidity in RPMI 1640 supplemented with 10% fetal bovine serum, 100 U/mL penicillin/streptomycin, and 400 μg/mL G418 to maintain the reporter gene. For infections, MT4-GFP cells were placed in the same medium lacking G418 and infected overnight with H9IIIB virus at an approximate multiplicity of infection of 0.01 in the same incubation conditions. Cells were then washed and re-suspended in either RPMI 1640 containing 10% or 50% normal human serum at 1.6×10^5 cells/mL (10% or 50% NHS conditions) or in 100% normal human serum at 2×10^5 cells/mL (100% NHS conditions). […]
Infected cells were quantified at two time points, ˜48 h and ˜72 h post-infection, by counting the number of green cells in each well using an Acumen eX3 scanner. […] Inhibition of R0 is calculated for each well, and EC50s determined by non-linear 4-parameter curve fitting.

In data set [2] the target is T1, adenosine deaminase (ADA) type 1 (Homo sapiens, UniProt P00813).
T1 sequence (P00813 1-363): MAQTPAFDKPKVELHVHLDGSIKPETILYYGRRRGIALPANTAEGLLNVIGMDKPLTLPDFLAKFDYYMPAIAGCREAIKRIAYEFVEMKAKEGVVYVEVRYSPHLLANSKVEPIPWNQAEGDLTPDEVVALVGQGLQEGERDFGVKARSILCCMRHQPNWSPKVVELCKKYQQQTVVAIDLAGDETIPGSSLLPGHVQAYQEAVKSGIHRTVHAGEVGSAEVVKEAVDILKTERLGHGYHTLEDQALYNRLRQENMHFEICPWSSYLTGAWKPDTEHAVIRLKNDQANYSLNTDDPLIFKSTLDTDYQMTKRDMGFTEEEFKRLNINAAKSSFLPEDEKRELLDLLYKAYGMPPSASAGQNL
The data set is described as follows: Adenosine Deaminase (ADA) Half-Life. It counts as in vitro ADME. The following applies: human ADA type 1 (adenosine deaminase) in Tris-HCl buffer, time for 50% conversion to inosine product, Tris-HCl buffer pH 7.5, 40° C., LCMS. The procedure: The data in Table 4 was generated by testing the reactivity of the substrate compound with human ADA type 1 in the presence of Tris-HCl buffer (pH 7.5) at 40° C. and monitoring by LCMS for consumption of starting material. The time necessary for 50% conversion to the corresponding inosine product is noted as the T1/2 in Table 4. It is known that deamination by adenosine deaminase decreases the therapeutic potential of adenosine-like nucleoside inhibitors especially in vivo (see references below). […] It is possible that compounds that are more resistant to ADA will have better pharmacokinetic properties.

Data set [3] concerns wild-type and multi-drug resistant HIV-1 strains. As to conditions: cited from earlier work.
The next data set addresses T2, HIV-1 RT enzyme (Human immunodeficiency virus type 1 group M subtype B, UniProt P04585).
T2 construct: Full-length wild-type and 2 mutant RT proteins were expressed in Escherichia coli BL21(DE3) cells and purified; made in house; host or cells: Escherichia coli BL21(DE3)
Put plainly: RT Polymerase Assay. It counts as biochemical. The procedure: Full-length wild-type and 2 mutant RT proteins were expressed in Escherichia coli BL21(DE3) cells and purified. Briefly, the heterodimeric nucleic acid substrate used in the HIV-1 RT polymerase reactions was generated by annealing biotinylated DNA primer to a 500 nucleotide RNA template. The HIV-1 RT enzyme (final concentration of 50 pM) was combined with an inhibitor compound or DMSO (10% DMSO in the final reaction mixture) in assay buffer (62.5 mM Tris-HCl, pH 7.8, 1.25 mM dithiothreitol, 7.5 mM MgCl2, 100 mM KCl, 0.03% CHAPS, 0.125 mM EGTA). This mixture was pre-incubated for 30 minutes at room temperature in microtiter plates. The polymerization reaction was initiated by the addition of template/primer substrate (final concentration: 16.6 nM) and dNTPs (final concentration: 2 μM dCTP, dGTP, dATP, and 66.6 nM Ru-dUTP). After 90 min of incubation at 37° C., reactions were quenched by the addition of EDTA (25 mM). The resulting mixture was incubated for an additional 5 minutes at room temperature followed by transferring the solution (50 μL) to blocked avidin plate from Meso Scale Discovery (MSD). The mixtures were incubated at room temperature for 60 min prior to the quantification of the reaction product via an ECL 6000 imager instrument.

Consider `Cc1cn([C@H]2C[C@H](N=[N+]=[N-])[C@@H](CO)O2)c(=O)[nH]c1=O` [AZT, 3′-azido-3′-deoxythymidine], for which the EC50 in data set [1] (24 h, read-out: EC50 24 h) came to 0.019 µM; in data set [1] (72 h, read-out: EC50 72 h), 0.068 µM; in the data set on HIV-1 (H9IIIB virus), 0.037 µM.
Compound `Nc1ncnc2c1ncn2[C@H]1C[C@H](O)[C@@H](CO)O1` [Deoxy- adenosine, deoxyadenosine] came in with a half-life in data set [2] of less than 0.167 h.
`C#C[C@]1(CO)O[C@@H](n2cnc3c(N)ncnc32)C[C@@H]1O` [EDA, (2R,3S,5R)-5-(6-amino-9H-purin-9-yl)-2-ethynyl-2-(hydroxymethyl)tetrahydrofuran-3-ol] gave a half-life in data set [2] of less than 1 h.
In the case of `C#C[C@]1(CO)O[C@@H](n2cnc3c(N)nc(F)nc32)C[C@@H]1O` [EFdA, (2R,3S,5R)-5-(6-amino-2-fluoro-9H-purin-9-yl)-2-ethynyl-2-(hydroxymethyl)tetrahydrofuran-3-ol], the antiviral activity result in data set [3] is “potent antiviral activity”.
Consider `C#C[C@]1(CO)O[C@@H](n2cc(F)c3c(N)nc(Cl)nc32)C[C@@H]1O` [Example 1, (2R,3S,5R)-5-(4-amino-2-chloro-5-fluoro-7H-pyrrolo[2,3-d]pyrimidin-7-yl)-2-ethynyl-2-(hydroxymethyl)tetrahydrofuran-3-ol], for which the concentration for a half-maximal effect (EC50) in data set [1] (24 h, read-out: EC50 24 h) came out at 0.00038 µM; in data set [1] (72 h, read-out: EC50 72 h), 0.0038 µM; in the data set with HIV-1 (H9IIIB virus) it was 0.0012 µM. This compound gave a half-life in data set [2] (value given as symbol) of more than 240 h.
In the case of `C#C[C@]1(COP(=O)(O)OP(=O)(O)OP(=O)(O)O)O[C@@H](n2cc(F)c3c(N)nc(Cl)nc32)C[C@@H]1O` [Example 2, ammonium ((2R,3S,5R)-5-(4-amino-2-chloro-5-fluoro-7H-pyrrolo[2,3-d]pyrimidin-7-yl)-2-ethynyl-3-hydroxytetrahydrofuran-2-yl)methyl triphosphate], at HIV-1 RT enzyme, 0.49 µM corresponded to half-maximal inhibition (IC50).

The term EC50 denotes the concentration needed to bring the measured effect to its halfway point. The term half-life denotes how long it takes for the measured level to halve. A lower half-life goes with fast loss. The term IC50 denotes the concentration at which inhibition is half-maximal. Read a high IC50 as weaker potency.
